In patent publication US20210395313A1, “PEPTIDE PAC1 ANTAGONISTS” (AMGEN INC., priority 2017, published 2021):
Where a SMILES comes first, the peptide text is derived from it. Bridges are numbered along the chain shown (N, C = ends).

Each compound was assayed against T1, rat PAC1 receptor (Rattus norvegicus, UniProt P32215) (assay: LANCE Ultra cAMP accumulation antagonist assay in RG-2 cells;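 also: RG-2 rat glioma cells endogenously expressing PAC1, test peptide preincubated 30 min, then PAC1 agonist added at its EC80 for 15 min, cAMP accumulation read by LANCE Ultra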).
T1 construct: SHSY-5Y (human neuroblastoma cell line) and RG-2 (rat glioma cell line) cells endogenously express human and rat PAC1 receptors, respectively; endogenous in cells; host or cells: RG-2 rat glioma cells
T1 sequence (P32215 20-523): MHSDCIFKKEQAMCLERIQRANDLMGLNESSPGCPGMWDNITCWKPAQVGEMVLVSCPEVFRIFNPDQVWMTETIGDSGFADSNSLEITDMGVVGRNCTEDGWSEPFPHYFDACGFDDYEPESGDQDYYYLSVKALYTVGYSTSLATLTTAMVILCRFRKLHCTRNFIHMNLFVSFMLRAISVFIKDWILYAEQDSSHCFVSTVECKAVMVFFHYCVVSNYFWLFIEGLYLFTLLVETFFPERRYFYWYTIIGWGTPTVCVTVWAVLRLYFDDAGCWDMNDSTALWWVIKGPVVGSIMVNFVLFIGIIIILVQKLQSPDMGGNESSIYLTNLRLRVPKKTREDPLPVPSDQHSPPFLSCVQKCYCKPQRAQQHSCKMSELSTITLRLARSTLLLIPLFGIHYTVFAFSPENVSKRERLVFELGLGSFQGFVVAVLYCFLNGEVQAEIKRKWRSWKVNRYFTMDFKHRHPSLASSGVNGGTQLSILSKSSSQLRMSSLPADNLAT
Type: cell-based

Row | Compound | IC50 [nM]
1 | CC[C@H](C)[C@H](NC(=O)[C@H](C)NC(=O)[C@H](CCCCN)NC(=O)[C@H](CCCNC(=N)N)NC(=O)[C@H](Cc1ccccc1)NC(=O)[C@H](CCC(N)=O)NC(=O)[C@@H]1CSSC[C@H](N)C(=O)N[C@@H](CC(=O)O)C(=O)N[C@@H](C)C(=O)N[C@@H]([C@@H](C)O)C(=O)N1)C(=O)N[C@@H](CC(=O)O)C(=O)N[C@@H](CC(=O)O)C(=O)N[C@H]1CSSC[C@@H](C(=O)N[C@@H](CCSC)C(=O)N[C@@H](CCCCN)C(=O)N[C@@H](CCC(N)=O)C(=O)N[C@@H](CCCCN)C(=O)N[C@@H](CCCCN)C(=O)N[C@@H](CCCCN)C(=O)N[C@@H](CCC(=O)O)C(=O)N[C@@H](Cc2c[nH]c3ccccc23)C(=O)N[C@@H](CCCCN)C(=O)N[C@@H](C)C(=O)NCC(N)=O)NC(=O)[C@H](C)NC(=O)[C@H](CCCCN)NC(=O)[C@H](Cc2ccccc2)NC(=O)[C@H](C(C)C)NC(=O)[C@H](CO)NC(=O)[C@H](CO)NC(=O)[C@H](Cc2c[nH]cn2)NC(=O)[C@H](CO)NC(=O)[C@H](C)NC(=O)[C@H](CCC(N)=O)NC(=O)[C@H](CCCNC(=N)N)NC(=O)[C@H](C)NC1=O [compound 433] (H-CDATCQFRKAIDDCARQASHSSVFKACMKQKKKEWKAG-NH2; disulfide 1-5, 14-27) | < 0.01
2 | CC[C@H](C)[C@H](NC(=O)[C@H](C)NC(=O)[C@H](CCCCN)NC(=O)[C@H](CCCNC(=N)N)NC(=O)[C@H](Cc1ccccc1)NC(=O)[C@H](CCC(N)=O)NC(=O)[C@@H]1CSSC[C@H](N)C(=O)N[C@@H](CC(=O)O)C(=O)N[C@@H](C)C(=O)N[C@@H]([C@@H](C)O)C(=O)N1)C(=O)N[C@@H](CC(=O)O)C(=O)N[C@@H](CC(=O)O)C(=O)N[C@H]1CSSC[C@@H](C(=O)N[C@@H](CCSC)C(=O)N[C@@H](CCCCN)C(=O)N[C@@H](CCC(N)=O)C(=O)N[C@@H](CCCCN)C(=O)N[C@@H](CCCCN)C(=O)N[C@@H](CCCCN)C(=O)N[C@@H](CCC(=O)O)C(=O)N[C@@H](Cc2c[nH]c3ccccc23)C(=O)N[C@@H](CCCCN)C(=O)N[C@@H](C)C(=O)NCC(N)=O)NC(=O)[C@H](C)NC(=O)[C@H](CCCCN)NC(=O)[C@H](Cc2ccccc2)NC(=O)[C@H](C(C)C)NC(=O)[C@H](CO)NC(=O)[C@H](CO)NC(=O)[C@H](Cc2c[nH]cn2)NC(=O)[C@H](CCCCN)NC(=O)[C@H](C)NC(=O)[C@H](CCC(N)=O)NC(=O)[C@H](CCCNC(=N)N)NC(=O)[C@H](C)NC1=O [compound 434] (H-CDATCQFRKAIDDCARQAKHSSVFKACMKQKKKEWKAG-NH2; disulfide 1-5, 14-27) | < 0.01
3 | CC[C@H](C)[C@H](NC(=O)[C@H](C)NC(=O)[C@H](CCCCN)NC(=O)[C@H](CCCNC(=N)N)NC(=O)[C@H](Cc1ccccc1)NC(=O)[C@H](CCC(N)=O)NC(=O)[C@@H]1CSSC[C@H](N)C(=O)N[C@@H](CC(=O)O)C(=O)N[C@@H](C)C(=O)N[C@@H]([C@@H](C)O)C(=O)N1)C(=O)N[C@@H](CC(=O)O)C(=O)N[C@@H](CC(=O)O)C(=O)N[C@H]1CSSC[C@@H](C(=O)N[C@@H](CC(C)C)C(=O)N[C@@H](CCCCN)C(=O)N[C@@H](CCC(N)=O)C(=O)N[C@@H](CCCCN)C(=O)N[C@@H](CCCCN)C(=O)N[C@@H](CCCCN)C(=O)N[C@@H](CCC(=O)O)C(=O)N[C@@H](Cc2c[nH]c3ccccc23)C(=O)N[C@@H](CCCCN)C(=O)N[C@@H](C)C(=O)NCC(N)=O)NC(=O)[C@H](C)NC(=O)[C@H](CCCCN)NC(=O)[C@H](Cc2ccccc2)NC(=O)[C@H](C(C)C)NC(=O)[C@H](CO)NC(=O)[C@H](CO)NC(=O)[C@H](Cc2c[nH]cn2)NC(=O)[C@H](Cc2ccc(O)cc2)NC(=O)[C@H](C)NC(=O)[C@H](CCC(N)=O)NC(=O)[C@H](CCCNC(=N)N)NC(=O)[C@H](C)NC1=O [compound 435] (H-CDATCQFRKAIDDCARQAYHSSVFKACLKQKKKEWKAG-NH2; disulfide 1-5, 14-27) | 0.01 to 1
4 | CC[C@H](C)[C@H](NC(=O)[C@H](C)NC(=O)[C@H](CCCCN)NC(=O)[C@H](CCCNC(=N)N)NC(=O)[C@H](Cc1ccccc1)NC(=O)[C@H](CCC(N)=O)NC(=O)[C@@H]1CSSC[C@H](N)C(=O)N[C@@H](CC(=O)O)C(=O)N[C@@H](C)C(=O)N[C@@H]([C@@H](C)O)C(=O)N1)C(=O)N[C@@H](CC(=O)O)C(=O)N[C@@H](CC(=O)O)C(=O)N[C@H]1CSSC[C@@H](C(=O)N[C@@H](CC(C)C)C(=O)N[C@@H](CCCCN)C(=O)N[C@@H](CCC(N)=O)C(=O)N[C@@H](CCCCN)C(=O)N[C@@H](CCCCN)C(=O)N[C@@H](CCCCN)C(=O)N[C@@H](CCC(=O)O)C(=O)N[C@@H](Cc2c[nH]c3ccccc23)C(=O)N[C@@H](CCCCN)C(=O)N[C@@H](C)C(=O)NCC(N)=O)NC(=O)[C@H](CO)NC(=O)[C@H](CCCCN)NC(=O)[C@H](Cc2ccccc2)NC(=O)[C@H](C(C)C)NC(=O)[C@H](CO)NC(=O)[C@H](CO)NC(=O)[C@H](Cc2c[nH]cn2)NC(=O)[C@H](Cc2ccc(O)cc2)NC(=O)[C@H](C)NC(=O)[C@H](CCC(N)=O)NC(=O)[C@H](CCCNC(=N)N)NC(=O)[C@H](C)NC1=O [compound 436] (H-CDATCQFRKAIDDCARQAYHSSVFKSCLKQKKKEWKAG-NH2; disulfide 1-5, 14-27) | 0.01 to 1
5 | CSCC[C@H](NC(=O)[C@H](C)NC(=O)[C@@H](NC(=O)[C@H](CCCCN)NC(=O)[C@H](CCCCN)NC(=O)[C@H](Cc1ccc(O)cc1)NC(=O)[C@H](CC(C)C)NC(=O)[C@H](CO)NC(=O)[C@H](C)NC(=O)[C@@H](NC(=O)[C@H](CC(C)C)NC(=O)CNC(=O)[C@H](CCCCN)NC(=O)[C@H](CCCNC(=N)N)NC(=O)[C@H](Cc1ccc(O)cc1)NC(=O)[C@H](CCC(N)=O)NC(=O)[C@@H]1CSSC[C@H](N)C(=O)N[C@@H](CC(=O)O)C(=O)N[C@@H](C)C(=O)N[C@@H]([C@@H](C)O)C(=O)N1)C(C)C)C(C)C)C(=O)N[C@@H](CCC(N)=O)C(=O)N[C@@H](CCCCN)C(=O)N[C@@H](CCCNC(=N)N)C(=O)N[C@@H](Cc1ccc(O)cc1)C(N)=O [compound 437] (H-CDATCQYRKGLVASLYKKVAMQKRY-NH2; disulfide 1-5) | > 100
6 | CSCC[C@H](NC(=O)[C@H](CO)NC(=O)[C@H](C)NC(=O)[C@H](CCCCN)NC(=O)[C@H](Cc1ccccc1)NC(=O)[C@@H](NC(=O)[C@H](CO)NC(=O)[C@H](C)NC(=O)[C@@H](NC(=O)[C@H](CC(C)C)NC(=O)CNC(=O)[C@H](CCCCN)NC(=O)[C@H](CCCNC(=N)N)NC(=O)[C@H](Cc1ccc(O)cc1)NC(=O)[C@H](CCC(N)=O)NC(=O)[C@@H]1CSSC[C@H](N)C(=O)N[C@@H](CC(=O)O)C(=O)N[C@@H](C)C(=O)N[C@@H]([C@@H](C)O)C(=O)N1)C(C)C)C(C)C)C(=O)N[C@@H](CCCCN)C(=O)N[C@@H](CCC(N)=O)C(=O)N[C@@H](CCCCN)C(=O)N[C@@H](CCCCN)C(=O)N[C@@H](CCCCN)C(=O)N[C@@H](CCC(=O)O)C(=O)N[C@@H](Cc1ccccc1)C(=O)N[C@@H](CCCCN)C(=O)N[C@@H](C)C(=O)NCC(=O)O [compound 438] (H-CDATCQYRKGLVASVFKASMKQKKKEFKAG-OH; disulfide 1-5) | > 100
7 | CC[C@H](C)[C@H](NC(=O)[C@H](C)NC(=O)[C@H](CCCCN)NC(=O)[C@H](CCCNC(=N)N)NC(=O)[C@H](Cc1ccccc1)NC(=O)[C@H](CCC(N)=O)NC(=O)[C@@H]1CSSC[C@H](N)C(=O)N[C@@H](CC(=O)O)C(=O)N[C@@H](C)C(=O)N[C@@H]([C@@H](C)O)C(=O)N1)C(=O)N[C@@H](CC(=O)O)C(=O)N[C@@H](CC(=O)O)C(=O)N[C@H]1CSSC[C@@H](C(=O)N[C@@H](CCSC)C(=O)N[C@@H](CCCCN)C(=O)N[C@@H](CCC(N)=O)C(=O)N[C@@H](CCCCN)C(=O)N[C@@H](CCCCN)C(=O)N[C@@H](CCCCN)C(=O)N[C@@H](CCC(=O)O)C(=O)N[C@@H](Cc2c[nH]c3ccccc23)C(=O)N[C@@H](CCCCN)C(=O)N[C@@H](C)C(=O)NCC(=O)N[C@@H](Cc2c[nH]cn2)C(=O)O)NC(=O)[C@H](C)NC(=O)[C@H](CCCCN)NC(=O)[C@H](Cc2ccccc2)NC(=O)[C@H](CO)NC(=O)[C@H](Cc2c[nH]cn2)NC(=O)[C@H](Cc2ccc(O)cc2)NC(=O)[C@H](C)NC(=O)[C@H](CCC(N)=O)NC(=O)[C@H](CCCNC(=N)N)NC(=O)[C@H](C)NC1=O [compound 439] (H-CDATCQFRKAIDDCARQAYHSFKACMKQKKKEWKAGH-OH; disulfide 1-5, 14-25) | 0.01 to 1
8 | CC[C@H](C)[C@H](NC(=O)[C@H](C)NC(=O)[C@H](CCCCN)NC(=O)[C@H](CCCNC(=N)N)NC(=O)[C@H](Cc1ccccc1)NC(=O)[C@H](CCC(N)=O)NC(=O)[C@H](CO)NC(=O)[C@@H](NC(=O)[C@H](C)N)[C@@H](C)O)C(=O)N[C@@H](CC(=O)O)C(=O)N[C@@H](CC(=O)O)C(=O)N[C@H]1CSSC[C@@H](C(=O)N[C@@H](CCSC)C(=O)N[C@@H](CCCCN)C(=O)N[C@@H](CCC(N)=O)C(=O)N[C@@H](CCCCN)C(=O)N[C@@H](CCCCN)C(=O)N[C@@H](CCCCN)C(=O)N[C@@H](CCC(=O)O)C(=O)N[C@@H](Cc2c[nH]c3ccccc23)C(=O)N[C@@H](CCCCN)C(=O)O)NC(=O)[C@H](C)NC(=O)[C@H](CCCCN)NC(=O)[C@H](Cc2ccccc2)NC(=O)[C@H](C(C)C)NC(=O)[C@H](CO)NC(=O)[C@H](CO)NC(=O)[C@H](Cc2c[nH]cn2)NC(=O)[C@H](Cc2ccc(O)cc2)NC(=O)[C@H](C)NC(=O)[C@H](CCC(N)=O)NC(=O)[C@H](CCCNC(=N)N)NC(=O)[C@H](C)NC1=O [compound 440] (H-ATSQFRKAIDDCARQAYHSSVFKACMKQKKKEWK-OH; disulfide 12-25) | 1 to 100
